US6642265B1, “Thrombopoietin mimetics” (SmithKline Beecham Corporation, priority 2002, dated 2003)

How the values were obtained:
[1] = target: T1, TPO receptor (Homo sapiens, UniProt P40238); assay: Luciferase assay in TPO-responsive BaF3 cell line; assay type: cell-based; settings: TPO-responsive murine BaF3 cells
T1 construct: expressed in transfected cells; host or cells: murine BaF3 cells
T1 sequence (P40238 26-635): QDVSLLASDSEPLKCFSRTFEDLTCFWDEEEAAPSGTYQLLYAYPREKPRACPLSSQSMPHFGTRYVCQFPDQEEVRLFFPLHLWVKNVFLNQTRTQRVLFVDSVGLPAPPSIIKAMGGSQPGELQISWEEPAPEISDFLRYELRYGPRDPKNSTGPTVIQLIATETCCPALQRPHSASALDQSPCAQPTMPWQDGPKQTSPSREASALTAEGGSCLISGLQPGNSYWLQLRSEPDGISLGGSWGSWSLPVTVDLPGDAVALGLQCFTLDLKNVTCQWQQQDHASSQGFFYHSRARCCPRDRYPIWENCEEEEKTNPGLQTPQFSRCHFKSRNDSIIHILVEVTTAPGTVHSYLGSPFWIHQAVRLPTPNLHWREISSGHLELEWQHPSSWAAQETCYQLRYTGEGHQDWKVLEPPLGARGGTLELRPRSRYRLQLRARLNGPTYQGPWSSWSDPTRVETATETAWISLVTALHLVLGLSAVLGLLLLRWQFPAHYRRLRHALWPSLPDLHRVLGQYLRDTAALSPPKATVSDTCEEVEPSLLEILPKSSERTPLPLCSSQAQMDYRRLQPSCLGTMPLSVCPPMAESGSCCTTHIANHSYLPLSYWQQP
Description: Compounds of the present invention were tested for potency as mimetics of the TPO receptor in a Luciferase assay such as described in Lamb, et al., Nucleic Acids Research 23: 3283-3289 (1995) and Seidel, et al., Proc. Natl. Acad. Sci. USA 92: 3041-3045 (1995) by substituting a TPO-responsive BaF3 cell line (Vigon et a). Proc. Natl. Acad. Sci. USA 1992, 89, 5640-5644) for the HepG2 cells utilized therein. The murine BaF3 cells express TPO receptors and closely match the pattern of STAT (signal transducers and activators of transcription) activation observed in primary murine and human bone marrow cells.

SMILES | EC50 [1] [nM] | activity relative to TPO in the luciferase assay ([1]; efficacy printed with the EC50) [% TPO] | melting point
Cc1ccc(-n2nc(C)c(N=Nc3ccc(C(=O)O)cc3O)c2O)cc1C [Example 6, 4-{[1-(3,4-Dimethylphenyl)-5-hydroxy-3-methyl-1H-pyrazol-4-yl]azo}-3-hydroxybenzoic Acid] | 1800 | 50 | 
Cc1ccc(-n2nc(C)c(N=Nc3cc(Cl)cc(S(=O)(=O)O)c3O)c2O)cc1C [Example 11, 5-Chloro-3-{[1-(3,4-dimethylphenyl)-5-hydroxy-3-methyl-1H-pyrazol-4-yl]azo}-2-hydroxybenzenesulfonic Acid] |  |  | 240 °C (dec.)
Cc1nn(-c2ccc(OCc3ccccc3)cc2)c(O)c1N=Nc1ccc(C(=O)O)cc1O [Example 3, 4-{[1-(4-Benzyloxyphenyl)-5-hydroxy-3-methyl-1H-pyrazol-4-yl]azo}-3-hydroxybenzoic Acid] |  |  | 258 to 260 °C (dec.)
